Patent publication US10294207B2, “Pyrazole derivatives as TNIK, IKKϵ and TBK1 inhibitor and pharmaceutical composition comprising same” (GREEN CROSS CORPORATION, priority 2015, dated 2019)

Experiments:
[1] = molecular target: T1, TBK1 (Homo sapiens, UniProt Q9UHD2); assay: TBK1 inhibition, ADP-Glo Kinase Assay; format: biochemical; conditions: luminometer
T1 construct: purchased Promega V3991
T1 sequence (Q9UHD2 1-729): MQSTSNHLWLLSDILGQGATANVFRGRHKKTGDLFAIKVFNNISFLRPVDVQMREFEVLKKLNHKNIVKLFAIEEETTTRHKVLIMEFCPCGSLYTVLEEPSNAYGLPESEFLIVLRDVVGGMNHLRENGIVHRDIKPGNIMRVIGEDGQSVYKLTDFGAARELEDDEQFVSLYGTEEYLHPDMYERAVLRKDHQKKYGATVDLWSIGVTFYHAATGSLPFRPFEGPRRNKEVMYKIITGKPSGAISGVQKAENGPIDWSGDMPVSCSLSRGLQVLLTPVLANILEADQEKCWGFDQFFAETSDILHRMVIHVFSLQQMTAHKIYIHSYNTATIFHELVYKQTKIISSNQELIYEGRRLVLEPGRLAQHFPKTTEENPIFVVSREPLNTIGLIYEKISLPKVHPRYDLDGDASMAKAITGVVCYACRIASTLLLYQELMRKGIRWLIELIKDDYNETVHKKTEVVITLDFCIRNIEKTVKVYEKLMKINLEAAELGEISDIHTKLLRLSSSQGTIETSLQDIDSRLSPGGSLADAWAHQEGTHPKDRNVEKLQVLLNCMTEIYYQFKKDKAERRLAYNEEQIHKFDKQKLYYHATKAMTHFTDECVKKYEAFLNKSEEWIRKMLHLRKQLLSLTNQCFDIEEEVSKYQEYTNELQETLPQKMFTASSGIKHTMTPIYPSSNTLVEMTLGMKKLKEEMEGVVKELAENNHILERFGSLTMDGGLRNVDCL
Description: (§1) Inhibition activities on TNIK, IKKε and TBK1 were evaluated using the compounds of Examples 1 to 254.
(§2) The inhibition activities on TNIK, IKKε and TBK1 were measured by a luminometer, TNIK/IKKε/TBK1 Kinase Enzyme System (Promega, Ca# V4158; Invitrogen, PR8031B, Promega, Ca# V3991) and ADP-Glo Kinase Assay using ADP-Glo™ Kinase Analysis Kit (Promega, Ca# V9101) and a kinase reaction buffer [40 mM Tris(pH 7.5), 20 mM MgCl2, 0.1 mg/mL BSA] in accordance with the manufacturer's protocol.

[2] = molecular target: T2, IKKε (Homo sapiens, UniProt Q14164); assay: IKKε inhibition, ADP-Glo Kinase Assay; format: biochemical; conditions: luminometer
T2 construct: purchased Invitrogen PR8031B
T2 sequence (Q14164 1-716): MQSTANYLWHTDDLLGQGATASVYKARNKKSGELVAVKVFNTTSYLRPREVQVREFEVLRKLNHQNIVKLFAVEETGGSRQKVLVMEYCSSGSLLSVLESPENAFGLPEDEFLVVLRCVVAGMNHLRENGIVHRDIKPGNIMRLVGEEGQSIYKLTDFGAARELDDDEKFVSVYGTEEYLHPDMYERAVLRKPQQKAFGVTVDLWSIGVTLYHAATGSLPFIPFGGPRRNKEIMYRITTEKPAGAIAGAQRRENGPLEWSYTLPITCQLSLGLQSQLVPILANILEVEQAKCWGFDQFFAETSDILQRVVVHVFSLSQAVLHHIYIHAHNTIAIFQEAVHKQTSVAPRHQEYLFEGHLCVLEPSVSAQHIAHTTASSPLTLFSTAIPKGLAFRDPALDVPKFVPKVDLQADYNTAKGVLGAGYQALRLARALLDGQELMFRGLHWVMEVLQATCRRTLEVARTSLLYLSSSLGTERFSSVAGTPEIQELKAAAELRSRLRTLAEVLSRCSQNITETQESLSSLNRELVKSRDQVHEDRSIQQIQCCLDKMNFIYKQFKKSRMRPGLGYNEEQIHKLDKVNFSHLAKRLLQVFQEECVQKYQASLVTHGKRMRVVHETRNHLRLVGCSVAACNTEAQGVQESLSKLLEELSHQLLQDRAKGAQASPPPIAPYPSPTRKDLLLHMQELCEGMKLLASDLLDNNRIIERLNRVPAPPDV
Description: as §1, §2

| SMILES | IC50 [1] | IC50 [2] |
| --- | --- | --- |
| CN1CCN(c2ccc(C(=O)Nc3n[nH]c4ccc(C(=O)NCc5ccco5)cc34)cc2)CC1 [Example 51, N-(Furan-2-ylmethyl)-3-(4-(4-methylpiperazin-1-yl)benzamido)-1H-indazole-5-carboxamide] | 0.0081 µM | 0.064 µM |
| CC(NC(=O)c1ccc2[nH]nc(NC(=O)c3ccc(N4CCN(C)CC4)cc3)c2c1)c1cccnc1 (centres unmarked) [Example 53, 3-(4-(4-Methylpiperazin-1-yl)benzamido)-N-(1-(pyridin-3-yl)ethyl)-1H-indazole-5-carboxamide] | 0.021 µM | > 10 µM |
| CCC(NC(=O)c1ccc2[nH]nc(NC(=O)c3ccc(N4CCN(C)CC4)cc3)c2c1)c1cccs1 (centres unmarked) [Example 55, 3-(4-(4-Methylpiperazin-1-yl)benzamido)-N-(1-(thiophen-2-yl)propyl)-1H-indazole-5-carboxamide] | 0.00093 µM | 0.0027 µM |
| CN1CCN(c2ccc(C(=O)Nc3n[nH]c4ccc(C(=O)NCc5cccnc5)cc34)cc2)CC1 [Example 57, 3-(4-(4-Methylpiperazin-1-yl)benzamido)-N-(pyridin-3-ylmethyl)-1H-indazole-5-carboxamide bis(2,2,2-trifluoroacetate)] | 0.0012 µM | 0.14 µM |
| CCCC(NC(=O)c1ccc2[nH]nc(NC(=O)c3ccc(N4CCOCC4)cc3)c2c1)c1cccs1 (centres unmarked) [Example 58, 3-(4-Morpholinobenzamido)-N-(1-(thiophen-2-yl)butyl)-1H-indazole-5-carboxamide] | 0.039 µM | 0.13 µM |
| CCCC(NC(=O)c1ccc2[nH]nc(NC(=O)c3ccc(N4CCN(C)CC4)cc3)c2c1)c1cccs1 (centres unmarked) [Example 59, 3-(4-(4-Methylpiperazin-1-yl)benzamido)-N-(1-(thiophen-2-yl)butyl)-1H-indazole-5-carboxamide] | 0.032 µM | 0.11 µM |
| Cc1ccc(CNC(=O)c2ccc3[nH]nc(NC(=O)c4ccc(N5CCN(C)CC5)cc4)c3c2)s1 [Example 61, 3-(4-(4-Methylpiperazin-1-yl)benzamido)-N-((5-methylthiophen-2-yl)methyl)-1H-indazole-5-carboxamide] | 0.056 µM | 0.23 µM |
| CN1CCN(c2ccc(C(=O)Nc3n[nH]c4ccc(C(=O)NC(C)(C)c5ccccc5)cc34)cc2)CC1 [Example 63, 3-(4-(4-Methylpiperazin-1-yl)benzamido)-N-(2-phenylpropan-2-yl)-1H-indazole-5-carboxamide] | 0.0094 µM | 0.036 µM |
| CN1CCN(c2ccc(C(=O)Nc3n[nH]c4ccc(C(=O)NC5(c6ccccc6)CC5)cc34)cc2)CC1 [Example 68, 3-(4-(4-Methylpiperazin-1-yl)benzamido)-N-(1-phenylcyclopropyl)-1H-indazole-5-carboxamide] | 0.0006 µM | 0.0042 µM |
| Cc1cc(CNC(=O)c2ccc3[nH]nc(NC(=O)c4ccc(N5CCN(C)CC5)cc4)c3c2)ccn1 [Example 70, 3-(4-(4-Methylpiperazin-1-yl)benzamido)-N-((2-methylpyridin-4-yl)methyl)-1H-indazole-5-carboxamide] | 0.18 µM | 1.5 µM |
| Cc1cc(N2CCOCC2)ccc1C(=O)Nc1n[nH]c2ccc(C(=O)NCc3cccs3)cc12 [Example 73, 3-(2-Methyl-4-morpholinobenzamido)-N-(thiophen-2-ylmethyl)-1H-indazole-5-carboxamide] | 0.004 µM | 0.044 µM |
| Cc1cc(N2CCN(C)CC2)ccc1C(=O)Nc1n[nH]c2ccc(C(=O)NCc3cccs3)cc12 [Example 74, 3-(2-Methyl-4-(4-methylpiperazin-1-yl)benzamido)-N-(thiophen-2-ylmethyl)-1H-indazole-5-carboxamide] | 0.0044 µM | 0.079 µM |
| CN1CCN(c2ccc(C(=O)Nc3n[nH]c4ccc(C(=O)C(C(=O)O)c5cccs5)cc34)cc2)CC1 (centres unmarked) [Example 75, 3-(3-(4-(4-Methylpiperazin-1-yl)benzamido)-1H-indazol-5-yl)-3-oxo-2-(thiophen-2-yl)propanoic Acid] | 0.18 µM | 0.67 µM |

The remaining lines, values ahead:

| IC50 [1] | IC50 [2] | SMILES |
| --- | --- | --- |
| 0.0058 µM | 0.037 µM | O=C(NCc1ccco1)c1ccc2[nH]nc(NC(=O)c3ccc(N4CCOCC4)cc3)c2c1 [Example 50, N-(Furan-2-ylmethyl)-3-(4-morpholinobenzamido)-1H-indazole-5-carboxamide] |
| 0.014 µM | > 10 µM | CC(NC(=O)c1ccc2[nH]nc(NC(=O)c3ccc(N4CCOCC4)cc3)c2c1)c1cccnc1 (centres unmarked) [Example 52, 3-(4-Morpholinobenzamido)-N-(1-(pyridin-3-yl)ethyl)-1H-indazole-5-carboxamide] |
| 0.00036 µM | 0.0031 µM | CCC(NC(=O)c1ccc2[nH]nc(NC(=O)c3ccc(N4CCOCC4)cc3)c2c1)c1cccs1 (centres unmarked) [Example 54, 3-(4-Morpholinobenzamido)-N-(1-(thiophen-2-yl)propyl)-1H-indazole-5-carboxamide] |
| 0.0033 µM | 0.1 µM | O=C(NCc1cccnc1)c1ccc2[nH]nc(NC(=O)c3ccc(N4CCOCC4)cc3)c2c1 [Example 56, 3-(4-Morpholinobenzamido)-N-(pyridin-3-ylmethyl)-1H-indazole-5-carboxamide 2,2,2-trifluoroacetate] |
| 0.034 µM | 0.28 µM | Cc1ccc(CNC(=O)c2ccc3[nH]nc(NC(=O)c4ccc(N5CCOCC5)cc4)c3c2)s1 [Example 60, N-((5-Methylthiophen-2-yl)methyl)-3-(4-morpholinobenzamido)-1H-indazole-5-carboxamide] |
| 0.011 µM | 0.032 µM | CC(C)(NC(=O)c1ccc2[nH]nc(NC(=O)c3ccc(N4CCOCC4)cc3)c2c1)c1ccccc1 [Example 62, 3-(4-Morpholinobenzamido)-N-(2-phenylpropan-2-yl)-1H-indazole-5-carboxamide] |
| 0.76 µM | 1.95 µM | O=C(NCc1ccc(C(F)(F)F)cc1)c1ccc2[nH]nc(NC(=O)c3ccc(N4CCOCC4)cc3)c2c1 [Example 65, 3-(4-Morpholinobenzamido)-N-(4-(trifluoromethyl)benzyl)-1H-indazole-5-carboxamide] |
| 0.98 µM | 3.19 µM | CN1CCN(c2ccc(C(=O)Nc3n[nH]c4ccc(C(=O)NCc5ccc(C(F)(F)F)cc5)cc34)cc2)CC1 [Example 66, 3-(4-(4-Methylpiperazin-1-yl)benzamido)-N-(4-(trifluoromethyl)benzyl)-1H-indazole-5-carboxamide] |
| 0.003 µM | 0.005 µM | O=C(Nc1n[nH]c2ccc(C(=O)NC3(c4ccccc4)CC3)cc12)c1ccc(N2CCOCC2)cc1 [Example 67, 3-(4-Morpholinobenzamido)-N-(1-phenylcyclopropyl)-1H-indazole-5-carboxamide] |
| 0.38 µM | 2.72 µM | Cc1cc(CNC(=O)c2ccc3[nH]nc(NC(=O)c4ccc(N5CCOCC5)cc4)c3c2)ccn1 [Example 69, N-((2-Methylpyridin-4-yl)methyl)-3-(4-morpholinobenzamido)-1H-indazole-5-carboxamide] |
| 0.44 µM | > 10 µM | O=C(NCc1ccc(C(F)(F)F)nc1)c1ccc2[nH]nc(NC(=O)c3ccc(N4CCOCC4)cc3)c2c1 [Example 71, 3-(4-Morpholinobenzamido)-N-((6-(trifluoromethyl)pyridin-3-yl)methyl)-1H-indazole-5-carboxamide] |
| 0.35 µM | 1.83 µM | CN1CCN(c2ccc(C(=O)Nc3n[nH]c4ccc(C(=O)NCc5ccc(C(F)(F)F)nc5)cc34)cc2)CC1 [Example 72, 3-(4-(4-Methylpiperazin-1-yl)benzamido)-N-((6-(trifluoromethyl)pyridin-3-yl)methyl)-1H-indazole-5-carboxamide] |
